Results published in PMC4424274, “Evaluation of [^11C]CB184 for imaging and quantification of TSPO overexpression in a rat model of herpes encephalitis” (European Journal of Nuclear Medicine and Molecular Imaging, 2015).
Several values for one entry are separate records, joined by “and”; a condition that tells them apart may be missing. Equal entries are not always repeated. Where two headings read alike, the source gives them in different places.

How the values were obtained:
[1] = lipophilicity; cited from earlier work
TSPO [2] = test system: TSPO; parameters: method as in PMID 25616581; conditions: 6-hydroxydopamine-injured striatum in rats; cited from earlier work
[3] = Plasma clearance and plasma metabolite analysis; assay type: in vivo, rat; conditions: Wistar, rat, in vivo, iv, metabolite-corrected plasma, intravenous injection, rats
Protocol: (§1) PET scans with arterial blood sampling were performed in a different set of rats to generate input for pharmacokinetic modelling. For the arterial blood sampling a cannula was inserted into the femoral artery after induction of anaesthesia. The femoral vein was additionally cannulated for PET tracer injection. After cannulation, the rats were positioned in the camera and a transmission scan was acquired using a ^57Co point source. […] A 0.1 ml blood sample of was taken at 0, 5, 10, 15, 20, 30, 45, 60, 75, 90, 120, 180, 300, 450, 600, 900, 1,800 and 3,600 s after injection. A larger blood sample of 0.5 ml was taken at three time points (5, 15, 30 and/or 60 min) for metabolite analysis. After collection of each blood sample, heparinized saline was injected to prevent large changes in blood pressure. A 25 μl aliquot of whole blood was extracted from each sample for radioactivity measurement. The remainder of each sample was centrifuged at 13,000 rpm (15,996 g) for 8 min, and 25 μl plasma was taken for radioactivity measurement. The radioactivity in blood and plasma was measured with a gamma counter.
Radioactive metabolites in plasma were measured using the extra blood samples taken at three time points during each scan (5, 15, 30 and/or 60 min). After centrifugation and collection of the plasma sample for radioactive measurement, as described above, the remaining plasma was diluted with acetonitrile (1.5 times the amount of plasma) and vortex-mixed. The plasma suspension was centrifuged at 5,300 rpm (3,030 g) for 3 min, and divided into supernatant and pellet. […] Fractions of 30 s were collected and measured in the gamma counter.
The percentage of metabolites in plasma was calculated by fitting an exponential function to the values obtained from the HPLC analysis. The plasma values obtained from the blood samples during the PET scan were then corrected for the presence of these metabolites, and used together with the whole-blood curve for further analysis. Metabolite corrected plasma TACs were fitted for each individual rat using iterative nonlinear least-squares fitting to the biexponential equation: SUVt = Ae^−αt + Be^−βt, where SUVt is the plasma SUV at time t, α and β are the apparent distribution and elimination rate constants (s^−1), respectively, and A and B are the corresponding zero-time intercepts. The weighting factors were the reciprocals of the plasma SUV squared. Distribution and elimination half-lives (seconds) were calculated as the natural logarithm of 2 divided by α and β, respectively.

TSPO [4] = molecular target: T1, TSPO (Rattus norvegicus, UniProt P16257); assay: Kinetic modelling of PET data (2TCMR, Logan): BPND and VT; assay type: in vivo
T1 construct: from tissue; host or cells: Brain regions and peripheral organs of male Wistar rats, measured in vivo by PET and ex vivo by gamma counting
Protocol: as §1
The TACs of those rats in which blood sampling was performed, together with their corresponding whole-blood and metabolite-corrected plasma curves, were used for pharmacokinetic modelling using PMOD v3.3 (PMOD Technologies, Zürich, Switzerland). […] The reversible two-tissue compartment model (2TCMR) with K 1/k 2 fixed to the whole cortex value and a fixed blood volume of 3 % were used to calculate the V T and nondisplaceable binding potential (BPND, calculated as k 3/k 4 [29]).

[5] = Radioactive metabolites of [^11C]CB184 in brain; assay type: in vivo, rat; conditions: 30 min after injection
Protocol: To determine if radioactive metabolites of [^11C]CB184 entered the brain, the brain of one control rat and one HSE rat were isolated 30 min after injection and homogenized with a solution of ice-cold acetonitrile (3 ml). The homogenate was centrifuged at 6,000 rpm (3,461 g) for 10 min. The supernatant was then collected and processed by HPLC, as described above.

TSPO [6] = conditions: normal mice; cited from earlier work
[7] = control rats (PBS group), k3/k4

CCCN(CCC)C(=O)Cc1c(-c2ccc(O[11CH3])cc2)nc2c(Cl)cc(Cl)cn12 [[^11C]CB184]
logP [1]: 2.06 | Inflammation-induced binding as compared with (R)-[^11C]PK11195 (TSPO [2]): comparable | half-life ([3]; read-out: Distribution half-life in plasma (converted)): 0.283 min | half-life ([3]; read-out: Elimination half-life in plasma): 44 ± 26 min | Binding potential (BPND), Cerebellum (TSPO [4]; HSE group, k3/k4): 3.83 ± 0.63 | Binding potential (BPND), Frontal cortex (TSPO [4]; HSE group, k3/k4): 3.08 ± 1.20 | Binding potential (BPND), Hippocampus (TSPO [4]; HSE group, k3/k4): 2.44 ± 0.34 | Binding potential (BPND), Midbrain (TSPO [4]; HSE group, k3/k4): 2.50 ± 0.51 | Binding potential (BPND), Olfactory bulb (TSPO [4]; HSE group, k3/k4): 8.82 ± 2.97 | Binding potential (BPND), Rest cortices (TSPO [4]; HSE group, k3/k4): 2.69 ± 0.47 | Binding potential (BPND), Striatum (TSPO [4]; HSE group, k3/k4): 1.91 ± 0.41 | Binding potential (BPND), Thalamus (TSPO [4]; HSE group, k3/k4): 1.85 ± 0.41 | Binding potential (BPND), Whole brain (TSPO [4]; HSE group, k3/k4): 3.25 ± 0.41 | Binding potential (BPND), Amygdala (TSPO [4]; [7]): 2.4 ± 1.2 and 2.39 ± 1.23 | Binding potential (BPND), Cerebellum (TSPO [4]; [7]): 2.88 ± 1.39 | Binding potential (BPND), Frontal cortex (TSPO [4]; [7]): 2.14 ± 1.23 | Binding potential (BPND), Hippocampus (TSPO [4]; [7]): 1.55 ± 0.90 | Binding potential (BPND), Hypothalamus (TSPO [4]; [7]): 2.7 ± 1.6 and 2.74 ± 1.62 | Binding potential (BPND), Medulla (TSPO [4]; [7]): 2.6 ± 1.2 and 2.64 ± 1.16 | Binding potential (BPND), Midbrain (TSPO [4]; [7]): 1.73 ± 0.98 | Binding potential (BPND), Olfactory bulb (TSPO [4]; [7]): 5.56 ± 2.67 | Binding potential (BPND), Pons (TSPO [4]; [7]): 2.6 ± 1.3 and 2.63 ± 1.31 | Binding potential (BPND), Rest cortices (TSPO [4]; [7]): 2.27 ± 1.37 | Binding potential (BPND), Septum (TSPO [4]; [7]): 1.5 ± 0.9 and 1.53 ± 0.90 | Binding potential (BPND), Striatum (TSPO [4]; [7]): 1.28 ± 0.74 | Binding potential (BPND), Thalamus (TSPO [4]; [7]): 1.17 ± 0.78 | Binding potential (BPND), Whole brain (TSPO [4]; [7]): 2.25 ± 1.17 | Increase of BPND in the medulla, HSE rats vs. control rats (TSPO [4]; medulla): 93% | Percentage of intact tracer present in the brain [5]: approximately 99% | Uptake in TSPO-rich regions (cerebellum and olfactory bulb) as compared with (R)-[^11C]PK11195 (TSPO [6]): higher uptake
